According to US20250353891A1 (MEDIMMUNE LIMITED, priority 2022, published 2025):
Starred links: 1 amine or outer side, 2 acyl side, 3 side chain; linkers in the order of their positions; H or OH if unused. Non-standard residues stand in square brackets, D forms with d. Residues, ends and D or L forms follow the SMILES beside them. Groups on a side chain read outwards from the residue. *: point of attachment. C20 diacid = O=C(O)CCCCCCCCCCCCCCCCCCC(=O)*; C18 diacid = O=C(O)CCCCCCCCCCCCCCCCC(=O)*; γGlu = O=C(O)[C@H](CCC(=O)[*:2])N[*:1]; αMeF = C[C@](N)(Cc1ccccc1)C(=O)O; AEEA = NCCOCCOCC(=O)O; Aib = CC(C)(N)C(=O)O

How the values were obtained:
[1] = target: human GLP-1 receptor (hGLP-1R) (Homo sapiens, UniProt P43220); assay: cAMP production (HTRF) in CHO cells expressing hGLP-1R; assay type: cell-based; parameters: expressed in transfected cells; details: for EC50: Table 7, peptides modified at position 20, cAMP in CHO hGLP-1R cells, geometric mean, read-out: hGLP-1R EC50; for % Relative Potency Ratio: Table 7, % GLP-1R activity relative to GLP-1 / % GlucR activity relative to glucagon
Sequence of human GLP-1 receptor (hGLP-1R) (P43220 24-463): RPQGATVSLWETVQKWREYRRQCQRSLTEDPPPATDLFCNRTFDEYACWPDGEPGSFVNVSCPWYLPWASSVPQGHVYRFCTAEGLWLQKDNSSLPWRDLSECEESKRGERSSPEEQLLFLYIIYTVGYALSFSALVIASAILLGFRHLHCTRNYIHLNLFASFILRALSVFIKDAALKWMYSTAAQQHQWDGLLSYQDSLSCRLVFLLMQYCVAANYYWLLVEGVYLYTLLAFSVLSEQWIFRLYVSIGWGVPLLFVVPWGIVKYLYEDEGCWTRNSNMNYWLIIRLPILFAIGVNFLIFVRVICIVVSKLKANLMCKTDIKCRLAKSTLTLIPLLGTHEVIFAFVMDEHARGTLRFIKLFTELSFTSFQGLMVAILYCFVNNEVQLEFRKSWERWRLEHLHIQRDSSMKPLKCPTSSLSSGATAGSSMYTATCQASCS
In short: (§1)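 Potency values represent EC50 from 4-parameter logistic curves of HTRF % Delta F signal. Receptor-expressing CHO cells (hGCGR 2×10^5 cells/mL, hGLP-1R 1×10^5 cells/mL) were exposed for 30 min at room temperature before two-step cAMP detection.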

[2] = target: human glucagon receptor (hGCGR) (Homo sapiens, UniProt P47871); assay: cAMP production (HTRF) in CHO cells expressing hGCGR; assay type: cell-based; parameters: expressed in transfected cells; details: Table 7, peptides modified at position 20; cAMP in CHO hGCGR cells; geometric mean; read-out: hGluc-R EC50
Sequence of human glucagon receptor (hGCGR) (P47871 26-477): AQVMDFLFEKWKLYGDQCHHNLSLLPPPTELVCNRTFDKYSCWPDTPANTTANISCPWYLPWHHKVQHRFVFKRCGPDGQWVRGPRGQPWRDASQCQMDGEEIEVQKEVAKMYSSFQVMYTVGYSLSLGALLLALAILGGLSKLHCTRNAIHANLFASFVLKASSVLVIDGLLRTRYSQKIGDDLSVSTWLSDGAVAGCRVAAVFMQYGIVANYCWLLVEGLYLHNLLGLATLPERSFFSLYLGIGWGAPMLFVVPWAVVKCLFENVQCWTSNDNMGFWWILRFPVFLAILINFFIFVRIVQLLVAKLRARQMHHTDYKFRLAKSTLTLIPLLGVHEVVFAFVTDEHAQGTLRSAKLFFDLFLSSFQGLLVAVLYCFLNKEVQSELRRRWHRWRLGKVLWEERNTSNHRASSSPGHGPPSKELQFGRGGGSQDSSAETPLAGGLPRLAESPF
In short: as §1

| SMILES | EC50 [1] | % Relative Potency Ratio [1] | EC50 [2] |
| --- | --- | --- | --- |
| CC[C@H](C)[C@H](NC(=O)C(C)(C)NC(=O)[C@H](CCC(N)=O)NC(=O)[C@@H](NC(=O)[C@](C)(Cc1ccccc1)NC(=O)[C@H](CC(=O)O)NC(=O)[C@H](CCCCNC(=O)COCCOCCNC(=O)COCCOCCNC(=O)CC[C@H](NC(=O)CC[C@H](NC(=O)CCCCCCCCCCCCCCCCC(=O)O)C(=O)O)C(=O)O)NC(=O)[C@H](C)NC(=O)[C@H](C)NC(=O)[C@H](CCCNC(=N)N)NC(=O)[C@H](CO)NC(=O)[C@H](CC(=O)O)NC(=O)[C@H](CC(C)C)NC(=O)[C@](C)(Cc1ccccc1)NC(=O)[C@H](CCCCN)NC(=O)[C@H](CO)NC(=O)[C@@H](NC(=O)[C@H](CC(=O)O)NC(=O)[C@H](CO)NC(=O)[C@@H](NC(=O)[C@](C)(Cc1ccccc1)NC(=O)[C@H](CO)NC(=O)CNC(=O)[C@H](Cc1c[nH]cn1)NC(=O)C(C)(C)NC(=O)[C@@H](N)Cc1c[nH]cn1)[C@@H](C)O)C(C)C)C(C)C)C(=O)N[C@@H](C)C(=O)N[C@@H](CC(N)=O)C(=O)N[C@H](C(N)=O)[C@@H](C)O [Peptide 231] (H-H[Aib]HGS[αMeF]TSDVSK[αMeF]LDSRAAK([AEEA-AEEA-γGlu-γGlu-C18 diacid])D[αMeF]VQ[Aib]IANT-NH2) | 0.0499 nM | 2.3 | 0.0585 nM |
| CC[C@H](C)[C@H](NC(=O)C(C)(C)NC(=O)[C@H](CCC(N)=O)NC(=O)[C@@H](NC(=O)[C@](C)(Cc1ccccc1)NC(=O)[C@H](CC(=O)O)NC(=O)[C@H](CCCCNC(=O)COCCOCCNC(=O)COCCOCCNC(=O)CC[C@H](NC(=O)CC[C@H](NC(=O)CCCCCCCCCCCCCCCCCCC(=O)O)C(=O)O)C(=O)O)NC(=O)[C@H](C)NC(=O)[C@H](C)NC(=O)[C@H](CCCNC(=N)N)NC(=O)[C@H](CO)NC(=O)[C@H](CC(=O)O)NC(=O)[C@H](CC(C)C)NC(=O)[C@](C)(Cc1ccccc1)NC(=O)[C@H](CCCCN)NC(=O)[C@H](CO)NC(=O)[C@@H](NC(=O)[C@H](CC(=O)O)NC(=O)[C@H](CO)NC(=O)[C@@H](NC(=O)[C@](C)(Cc1ccccc1)NC(=O)[C@H](CO)NC(=O)CNC(=O)[C@H](Cc1c[nH]cn1)NC(=O)C(C)(C)NC(=O)[C@@H](N)Cc1c[nH]cn1)[C@@H](C)O)C(C)C)C(C)C)C(=O)N[C@@H](C)C(=O)N[C@@H](CC(N)=O)C(=O)N[C@H](C(=O)NCC(=O)NCC(N)=O)[C@@H](C)O [Peptide 232] (H-H[Aib]HGS[αMeF]TSDVSK[αMeF]LDSRAAK([AEEA-AEEA-γGlu-γGlu-C20 diacid])D[αMeF]VQ[Aib]IANTGG-NH2; N-terminus assumed) | 0.11 nM | 18.4 | 1.02 nM |
| CC[C@H](C)[C@H](NC(=O)C(C)(C)NC(=O)[C@H](CCC(=O)O)NC(=O)[C@@H](NC(=O)[C@](C)(Cc1ccccc1)NC(=O)[C@H](CC(=O)O)NC(=O)[C@H](CCCCNC(=O)COCCOCCNC(=O)COCCOCCNC(=O)CC[C@H](NC(=O)CC[C@H](NC(=O)CCCCCCCCCCCCCCCCCCC(=O)O)C(=O)O)C(=O)O)NC(=O)[C@H](C)NC(=O)[C@H](C)NC(=O)[C@H](CCCNC(=N)N)NC(=O)[C@H](CO)NC(=O)[C@H](CC(=O)O)NC(=O)[C@H](CC(C)C)NC(=O)[C@](C)(Cc1ccccc1)NC(=O)[C@H](CCCCN)NC(=O)[C@H](CO)NC(=O)[C@@H](NC(=O)[C@H](CC(=O)O)NC(=O)[C@H](CO)NC(=O)[C@@H](NC(=O)[C@](C)(Cc1ccccc1)NC(=O)[C@H](CO)NC(=O)CNC(=O)[C@H](Cc1c[nH]cn1)NC(=O)C(C)(C)NC(=O)[C@@H](N)Cc1c[nH]cn1)[C@@H](C)O)C(C)C)C(C)C)C(=O)N[C@@H](C)C(=O)N[C@@H](CC(N)=O)C(=O)N[C@H](C(N)=O)[C@@H](C)O [Peptide 233] (H-H[Aib]HGS[αMeF]TSDVSK[αMeF]LDSRAAK([AEEA-AEEA-γGlu-γGlu-C20 diacid])D[αMeF]VE[Aib]IANT-NH2; N-terminus assumed) | 0.44 nM | 1.8 | 0.407 nM |
| CC[C@H](C)[C@H](NC(=O)C(C)(C)NC(=O)[C@H](CCC(N)=O)NC(=O)[C@@H](NC(=O)[C@H](Cc1ccccc1)NC(=O)[C@H](CC(=O)O)NC(=O)[C@H](CCCCNC(=O)COCCOCCNC(=O)COCCOCCNC(=O)CC[C@H](NC(=O)CC[C@H](NC(=O)CCCCCCCCCCCCCCCCCCC(=O)O)C(=O)O)C(=O)O)NC(=O)[C@H](C)NC(=O)[C@H](C)NC(=O)[C@H](CCCNC(=N)N)NC(=O)[C@H](CO)NC(=O)[C@H](CC(=O)O)NC(=O)[C@H](CC(C)C)NC(=O)[C@](C)(Cc1ccccc1)NC(=O)[C@H](CCCCN)NC(=O)[C@H](CO)NC(=O)[C@@H](NC(=O)[C@H](CC(=O)O)NC(=O)[C@H](CO)NC(=O)[C@@H](NC(=O)[C@](C)(Cc1ccccc1)NC(=O)[C@H](CO)NC(=O)CNC(=O)[C@H](Cc1c[nH]cn1)NC(=O)C(C)(C)NC(=O)[C@@H](N)Cc1c[nH]cn1)[C@@H](C)O)C(C)C)C(C)C)C(=O)N[C@@H](C)C(=O)N[C@@H](CC(N)=O)C(=O)N[C@H](C(=O)NCC(N)=O)[C@@H](C)O [Peptide 234] (H-H[Aib]HGS[αMeF]TSDVSK[αMeF]LDSRAAK([AEEA-AEEA-γGlu-γGlu-C20 diacid])DFVQ[Aib]IANTG-NH2) | 0.068 nM | 37.4 | 1.29 nM |
| CC[C@H](C)[C@H](NC(=O)C(C)(C)NC(=O)[C@H](CCC(N)=O)NC(=O)[C@@H](NC(=O)[C@H](Cc1ccccc1)NC(=O)[C@H](CC(=O)O)NC(=O)[C@H](CCCCNC(=O)COCCOCCNC(=O)COCCOCCNC(=O)CC[C@H](NC(=O)CC[C@H](NC(=O)CCCCCCCCCCCCCCCCC(=O)O)C(=O)O)C(=O)O)NC(=O)[C@H](C)NC(=O)[C@H](C)NC(=O)[C@H](CCCNC(=N)N)NC(=O)[C@H](CO)NC(=O)[C@H](CC(=O)O)NC(=O)[C@H](CC(C)C)NC(=O)[C@](C)(Cc1ccccc1)NC(=O)[C@H](CCCCN)NC(=O)[C@H](CO)NC(=O)[C@@H](NC(=O)[C@H](CC(=O)O)NC(=O)[C@H](CO)NC(=O)[C@@H](NC(=O)[C@](C)(Cc1ccccc1)NC(=O)[C@H](CO)NC(=O)CNC(=O)[C@H](Cc1c[nH]cn1)NC(=O)C(C)(C)NC(=O)[C@@H](N)Cc1c[nH]cn1)[C@@H](C)O)C(C)C)C(C)C)C(=O)N[C@@H](C)C(=O)N[C@@H](CC(N)=O)C(=O)N[C@H](C(=O)NCC(N)=O)[C@@H](C)O [Peptide 236] (H-H[Aib]HGS[αMeF]TSDVSK[αMeF]LDSRAAK([AEEA-AEEA-γGlu-γGlu-C18 diacid])DFVQ[Aib]IANTG-NH2) | 0.0221 nM | 19.2 | 0.215 nM |

Further lines, results first:

| EC50 [1] | % Relative Potency Ratio [1] | EC50 [2] | SMILES |
| --- | --- | --- | --- |
| 0.0267 nM | 22.1 | 0.299 nM | CC[C@H](C)[C@H](NC(=O)C(C)(C)NC(=O)[C@H](CCC(N)=O)NC(=O)[C@@H](NC(=O)[C@H](Cc1ccccc1)NC(=O)[C@H](CC(=O)O)NC(=O)[C@H](CCCCNC(=O)COCCOCCNC(=O)COCCOCCNC(=O)CC[C@H](NC(=O)CC[C@H](NC(=O)CCCCCCCCCCCCCCCCC(=O)O)C(=O)O)C(=O)O)NC(=O)[C@H](C)NC(=O)[C@H](C)NC(=O)[C@H](CCCNC(=N)N)NC(=O)[C@H](CO)NC(=O)[C@H](CC(=O)O)NC(=O)[C@H](CC(C)C)NC(=O)[C@](C)(Cc1ccccc1)NC(=O)[C@H](CCCCN)NC(=O)[C@H](CO)NC(=O)[C@@H](NC(=O)[C@H](CC(=O)O)NC(=O)[C@H](CO)NC(=O)[C@@H](NC(=O)[C@](C)(Cc1ccccc1)NC(=O)[C@H](CO)NC(=O)CNC(=O)[C@H](Cc1c[nH]cn1)NC(=O)C(C)(C)NC(=O)[C@@H](N)Cc1c[nH]cn1)[C@@H](C)O)C(C)C)C(C)C)C(=O)N[C@@H](C)C(=O)N[C@@H](CC(N)=O)C(=O)N[C@H](C(=O)NCC(=O)NCC(N)=O)[C@@H](C)O [Peptide 237] (H-H[Aib]HGS[αMeF]TSDVSK[αMeF]LDSRAAK([AEEA-AEEA-γGlu-γGlu-C18 diacid])DFVQ[Aib]IANTGG-NH2; N-terminus assumed) |
| 0.155 nM | 12.7 | 0.99 nM | CC[C@H](C)[C@H](NC(=O)[C@H](Cc1c[nH]c2ccccc12)NC(=O)[C@H](CCC(N)=O)NC(=O)[C@@H](NC(=O)[C@](C)(Cc1ccccc1)NC(=O)[C@H](CC(=O)O)NC(=O)[C@H](CCCCNC(=O)COCCOCCNC(=O)COCCOCCNC(=O)CC[C@H](NC(=O)CC[C@H](NC(=O)CCCCCCCCCCCCCCCCCCC(=O)O)C(=O)O)C(=O)O)NC(=O)[C@H](C)NC(=O)[C@H](C)NC(=O)[C@H](CCCNC(=N)N)NC(=O)[C@H](CO)NC(=O)[C@H](CC(=O)O)NC(=O)[C@H](CC(C)C)NC(=O)[C@](C)(Cc1ccccc1)NC(=O)[C@H](CCCCN)NC(=O)[C@H](CO)NC(=O)[C@@H](NC(=O)[C@H](CC(=O)O)NC(=O)[C@H](CO)NC(=O)[C@@H](NC(=O)[C@](C)(Cc1ccccc1)NC(=O)[C@H](CO)NC(=O)CNC(=O)[C@H](Cc1c[nH]cn1)NC(=O)C(C)(C)NC(=O)[C@@H](N)Cc1c[nH]cn1)[C@@H](C)O)C(C)C)C(C)C)C(=O)N[C@@H](C)C(=O)N[C@@H](CC(N)=O)C(=O)N[C@H](C(=O)NCC(N)=O)[C@@H](C)O [Peptide 238] (H-H[Aib]HGS[αMeF]TSDVSK[αMeF]LDSRAAK([AEEA-AEEA-γGlu-γGlu-C20 diacid])D[αMeF]VQWIANTG-NH2) |
